Earlier results as cited in patent publication US5594133A, “Crystalline acid addition salts of diastereomerically pure 1-(2,2-dimethylpropinonyloxy)-ethyl-3-cephem-4-carboxylate” (Hoechst Aktiengesellschaft, priority 1991, dated 1997).

Experiments:
[1] = T. Nishimura et al., J. Antibiotics XL (1987) 81-90
[2] = EP-A-0 329 008

For `CC(OC(=O)OC1CCCCC1)OC(=O)C1=C(CSc2nnnn2CCN(C)C)CS[C@@H]2[C@H](NC(=O)Cc3csc(N)n3)C(=O)N12` (stereo partly drawn) [cefotiam-hexetil], the “influence of the stereochemistry in the 1-position of the ethyl ester group on enteral absorbability” value [1] is listed as “no influence on enteral absorbability”.

In the case of `COCC1=C(C(=O)OC(C)OC(=O)C(C)(C)C)N2C(=O)C(NC(=O)/C(=N\O)c3csc(N)n3)[C@H]2SC1` (stereo partly drawn) [ester of the formula I, 1-(2,2-dimethylpropionyloxy)-ethyl 7-[2-(2-aminothiazol-4-yl)-2-(Z)-hydroxyimino-acetamido]-3-methoxymethyl-3-cephem-4-carboxylate], the “splitting by endogenous enzymes into the cephalosporin containing the free carboxyl group” value ([2]; after absorption) is listed as “split again rapidly and completely” and the enteral absorption ([2]; various animal species) is listed as “absorbed well enterally”.
